According to patent publication US20260325533A1, “CDK INHIBITOR COMPOUNDS” (ALEKSIA THERAPEUTICS, INC., priority 2023, published 2026):
Read-outs that look alike come from different tables or passages of the source.

Key:
Format in all cases: biochemical
CDK6/CCND1 = CDK6/CCND1 (Homo sapiens, UniProt Q00534); assay: CDK6 homogeneous time-resolved fluorescence (HTRF) kinase assay; settings: CDK6/CCND; >250 nM marked x; read-out: CDK6/CCND IC50 >250 nM
Experimental: A CDK homogeneous time-resolved fluorescence (HTRF) assay was used to assess the potency of the compounds described herein.
To an untreated 384-well microtiter plate (ProxiPlate) was added 100 nL 100×test compound in DMSO and 5 μL 2×CDK enzyme in assay buffer (50 mM HEPES, 1 mM EGTA, 10 mM MgCl2, 0.01% Tween 20, 2 mM DTT). The plate was centrifuged at 800 RPM for 1 min then incubated for 20 min at 23 °C. 2.5 μL per well of 4×ATP and 2.5 μL 4×ULight™-eIF4E-binding protein 1 (Thr37/46) Peptide substrate were added to all wells. After addition, the plates were centrifuged at 800 RPM for 1 min. The plates were incubated at 23 °C for 60 min. 5 μL per well 4×EDTA solution were added to each well to stop the reaction. 5 μL 4×LANCE Ultra Europium-anti-phospho-eIF4E-binding protein 1 (Thr37/46) antibody were added to each well and the plate was centrifuged for 1 min at 800 RPM. The plate was incubated for 60 min at 23 °C. Fluorescence was read at 340 nm excitation and 665 nm emission on an EnVision 2105 fluorescence reader. The final concentrations of reagents in the activity assay were 1 nM CDK6/CCND1, 1 mM ATP, 50 nM ULight™-eIF4E-binding protein 1 (Thr37/46) Peptide substrate, 1% DMSO, 10 mM EDTA, and 2 nM LANCE Ultra Europium-anti-phospho-eIF4E-binding protein 1 (Thr37/46).
Dose-response titrations were conducted by using an 11-point, half-logarithmic serial dilution scheme typically starting at 10 μM. Signals were reported as fluorescence units at 665 nm or the ratio of fluorescence units at 665 nm/fluorescence units at 615 nm. Signals are referred to below as “Lance signals”.
Using this assay, the IC50 values of example compounds were determined. Table 3 illustrates the IC50 for various Example compounds of Formula IA. Table 4 illustrates the IC50 for various other Example compounds of Formula I. ND=not determined.

CDK2/CCNE1 = CDK2/CCNE1 (Homo sapiens, UniProt P24941); assay: CDK2 homogeneous time-resolved fluorescence (HTRF) kinase assay
In short: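 TR-FRET read-out (665 nm, or 665/615 ratio) of Eu-antibody detection of phospho-4E-BP1 (Thr37/46) ULight peptide. Enzyme 3 nM, ATP 1 mM, peptide 50 nM, 1% DMSO; 60 min reaction at 23 °C after 20 min compound preincubation. IC50 from 11-point half-log titrations, top typically 10 μM.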

CDK1/CCNB1 = CDK1/CCNB1 (Homo sapiens, UniProt P06493); assay: CDK1 homogeneous time-resolved fluorescence (HTRF) kinase assay
In short: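 0.5 nM CDK1/CCNB1 was preincubated 20 min at 23 °C with compound in HEPES pH-unspecified buffer (MgCl2, EGTA, DTT, Tween 20), then reacted 60 min with 1 mM ATP and 50 nM ULight-4E-BP1 (Thr37/46) peptide. EDTA-stopped reactions were detected with 2 nM Eu-anti-phospho antibody; IC50 from 11-point half-log titrations.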

[1] = CDK2/CCNE, 25-250 nM marked x, read-out: CDK2/CCNE IC50 25-250 nM
[2] = CDK1/CCNB, >250 nM marked x, read-out: CDK1/CCNB IC50 >250 nM
[3] = CDK1/CCNB, 25-250 nM marked x, read-out: CDK1/CCNB IC50 25-250 nM
[4] = CDK2/CCNE, <25 nM, read-out: CDK2/CCNE IC50 <25 nM
[5] = CDK2/CCNE, >250 nM marked x, read-out: CDK2/CCNE IC50 >250 nM
[6] = 3 nM CDK2/CCNE1, 1 mM ATP, read-out: CDK2/CCNE IC50 >250 nM
[7] = 0.5 nM CDK1/CCNB1, 1 mM ATP, read-out: CDK1/CCNB IC50 >250 nM
[8] = 3 nM CDK2/CCNE1, 1 mM ATP, read-out: CDK2/CCNE IC50 25-250 nM

Sequence of CDK1/CCNB1 (P06493 whole entry): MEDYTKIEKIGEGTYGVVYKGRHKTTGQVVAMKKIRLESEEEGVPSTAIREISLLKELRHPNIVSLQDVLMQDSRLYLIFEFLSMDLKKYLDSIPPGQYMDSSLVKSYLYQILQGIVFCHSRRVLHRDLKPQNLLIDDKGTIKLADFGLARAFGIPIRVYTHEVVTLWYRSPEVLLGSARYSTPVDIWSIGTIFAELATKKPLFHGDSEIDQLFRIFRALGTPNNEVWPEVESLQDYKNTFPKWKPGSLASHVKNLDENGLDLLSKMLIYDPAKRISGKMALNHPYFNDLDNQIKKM
Sequence of CDK1/CCNB1 (P14635 whole entry partner): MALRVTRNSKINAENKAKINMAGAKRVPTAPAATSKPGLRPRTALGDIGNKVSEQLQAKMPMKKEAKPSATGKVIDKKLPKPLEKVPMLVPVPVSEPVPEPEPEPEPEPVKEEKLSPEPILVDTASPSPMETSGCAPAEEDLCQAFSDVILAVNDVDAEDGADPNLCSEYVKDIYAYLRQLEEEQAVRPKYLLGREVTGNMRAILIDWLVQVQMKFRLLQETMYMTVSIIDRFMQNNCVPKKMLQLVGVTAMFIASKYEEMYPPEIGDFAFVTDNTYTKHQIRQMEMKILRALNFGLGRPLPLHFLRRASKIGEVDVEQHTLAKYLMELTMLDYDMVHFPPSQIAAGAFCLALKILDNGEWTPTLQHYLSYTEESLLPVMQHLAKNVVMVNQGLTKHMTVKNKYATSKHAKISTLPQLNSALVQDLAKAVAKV
Sequence of CDK6/CCND1 (Q00534 whole entry): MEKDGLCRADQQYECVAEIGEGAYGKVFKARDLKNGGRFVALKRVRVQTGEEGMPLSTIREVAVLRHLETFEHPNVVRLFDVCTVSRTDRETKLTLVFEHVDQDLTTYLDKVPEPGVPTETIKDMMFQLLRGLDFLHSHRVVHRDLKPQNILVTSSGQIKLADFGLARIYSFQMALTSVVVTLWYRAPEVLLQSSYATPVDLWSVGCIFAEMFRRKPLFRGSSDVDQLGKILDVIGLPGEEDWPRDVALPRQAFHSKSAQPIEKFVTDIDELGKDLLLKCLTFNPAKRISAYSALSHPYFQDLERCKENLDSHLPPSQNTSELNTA
Sequence of CDK6/CCND1 (P24385 whole entry partner): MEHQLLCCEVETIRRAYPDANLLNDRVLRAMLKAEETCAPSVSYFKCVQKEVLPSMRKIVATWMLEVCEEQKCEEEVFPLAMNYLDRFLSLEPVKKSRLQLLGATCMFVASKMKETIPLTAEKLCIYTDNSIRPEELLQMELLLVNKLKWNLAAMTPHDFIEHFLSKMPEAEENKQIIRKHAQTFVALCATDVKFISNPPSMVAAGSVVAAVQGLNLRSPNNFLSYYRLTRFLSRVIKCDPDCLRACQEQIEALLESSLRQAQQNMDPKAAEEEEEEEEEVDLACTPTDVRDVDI

Structure (SMILES) | IC50 (CDK2/CCNE1; [1]) [nM] | IC50 (CDK1/CCNB1; [2]) [nM] | other results
CC(C)S(=N)(=O)c1ccc(Nc2cc3c(C#Cc4ccc5c(c4)NC(=O)C5(C)CCO)nccc3cn2)cc1 (single isomer, unassigned) [Ex 287, 3-(2-hydroxyethyl)-3-methyl-6-((7-((4-(propan-2-ylsulfonimidoyl)phenyl)amino)-2,6-naphthyridin-1-yl)ethynyl)indolin-2-one] |  |  | IC50 (CDK6/CCND1): > 250 nM
C=CS(=O)(=O)c1ccc(Nc2cc3c(-c4ccc5[nH]ncc5c4)nccc3cn2)cc1 [Ex 205, 5-(1H-indazol-5-yl)-N-(4-(vinylsulfonyl)phenyl)-2,6-naphthyridin-3-amine] | 25 to 250 | > 250 | 
C=CS(=O)(=O)c1ccc(Nc2cc3c(-c4cc5cn[nH]c5cc4C)nccc3cn2)cc1 [Ex 209, 5-(6-methyl-1H-indazol-5-yl)-N-(4-(vinylsulfonyl)phenyl)-2,6-naphthyridin-3-amine] | 25 to 250 | > 250 | 
CC1(C#N)CCN(c2nccc3cnc(NC4CCN(S(C)(=O)=O)CC4)cc23)CC1 [Ex 212, 4-methyl-1-(7-((1-(methylsulfonyl)piperidin-4-yl)amino)-2,6-naphthyridin-1-yl)piperidine-4-carbonitrile] | 25 to 250 | > 250 | 
N#CC1CCN(c2nccc3cnc(Nc4cccc(C(=O)ON5C(=O)CCC5=O)c4)cc23)CC1 [Ex 258, 2,5-dioxopyrrolidin-1-yl 3-((5-(4-cyanopiperidin-1-yl)-2,6-naphthyridin-3-yl)amino)benzoate] |  |  | IC50 (CDK2/CCNE1; [4]): < 25 nM; IC50 (CDK1/CCNB1; CDK1/CCNB, <25 nM, read-out: CDK1/CCNB IC50 <25 nM): < 25 nM
Cc1cc2c(cnn2C)cc1-c1nccc2cnc(NC3CCN(S(C)(=O)=O)CC3)cc12 [Ex 262, 5-(1,6-dimethyl-1H-indazol-5-yl)-N-(1-(methylsulfonyl)piperidin-4-yl)-2,6-naphthyridin-3-amine] |  |  | IC50 (CDK2/CCNE1; [4]): < 25 nM; IC50 (CDK1/CCNB1; [3]): 25 to 250 nM
Cn1cc(-c2nccc3cnc(NC4CCN(S(C)(=O)=O)CC4)cc23)cn1 [Example 4, 5-(1-methyl-1H-pyrazol-4-yl)-N-(1-(methylsulfonyl)piperidin-4-yl)-2,6-naphthyridin-3-amine] | 25 to 250 | > 250 | 
COc1nccc2cnc(NC3CCN(S(C)(=O)=O)CC3)cc12 [Example 5, 5-methoxy-N-(1-(methylsulfonyl)piperidin-4-yl)-2,6-naphthyridin-3-amine] | 25 to 250 | > 250 | 
C=CS(=O)(=O)N1CCC(Nc2cc3c(N4CCCCC4)nccc3cn2)C1 (stereo not drawn) [Example 9, 5-(piperidin-1-yl)-N-(1-(vinylsulfonyl)pyrrolidin-3-yl)-2,6-naphthyridin-3-amine] |  | > 250 | IC50 (CDK2/CCNE1; [5]): > 250 nM
C=CS(=O)(=O)N1CCC(Nc2cc3c(N4CCC(F)(F)CC4)nccc3cn2)CC1 [Example 10, 5-(4,4-difluoropiperidin-1-yl)-N-(1-(vinylsulfonyl)piperidin-4-yl)-2,6-naphthyridin-3-amine] | 25 to 250 | > 250 | 
CS(=O)(=O)N1CCC(Nc2cc3c(C(=O)N4CCC(O)CC4)nccc3cn2)CC1 [Example 12, (4-hydroxypiperidin-1-yl)(7-((1-(methylsulfonyl)piperidin-4-yl)amino)-2,6-naphthyridin-1-yl)methanone] |  | > 250 | IC50 (CDK2/CCNE1; [5]): > 250 nM
N#CC1CCN(c2nccc3cnc(Nc4cccc(OS(=O)(=O)F)c4)cc23)CC1 [Example 13, 3-((5-(4-cyanopiperidin-1-yl)-2,6-naphthyridin-3-yl)amino)phenyl sulfurofluoridate] |  |  | IC50 (CDK2/CCNE1): > 250 nM; IC50 (CDK1/CCNB1): > 250 nM
N#CC1CCN(c2nccc3cnc(Nc4ccc(OS(=O)(=O)F)cc4)cc23)CC1 [Example 14, 4-((5-(4-cyanopiperidin-1-yl)-2,6-naphthyridin-3-yl)amino)phenyl sulfurofluoridate] |  |  | IC50 (CDK2/CCNE1): > 250 nM; IC50 (CDK1/CCNB1): > 250 nM
CS(=O)(=O)N1CCC(Nc2cc3c(N4CCCCC4)nc(CO)cc3cn2)CC1 [Example 17, (7-((1-(methylsulfonyl)piperidin-4-yl)amino)-1-(piperidin-1-yl)-2,6-naphthyridin-3-yl)methanol] | 25 to 250 | > 250 | 
CS(=O)(=O)N1CCC(Nc2cc3c(N4CCCCC4)nc(CCO)cc3cn2)CC1 [Example 19, 2-(7-((1-(methylsulfonyl)piperidin-4-yl)amino)-1-(piperidin-1-yl)-2,6-naphthyridin-3-yl)ethan-1-ol] | 25 to 250 | > 250 | 
Cc1cc2cnc(NC3CCN(S(C)(=O)=O)CC3)cc2c(N2CCCCC2)n1 [Example 25, 7-methyl-N-(1-(methylsulfonyl)piperidin-4-yl)-5-(piperidin-1-yl)-2,6-naphthyridin-3-amine] |  | > 250 | IC50 (CDK2/CCNE1; [5]): > 250 nM
CS(=O)(=O)c1ccc(Nc2cc3c(C4=CCCCC4)ccnc3cn2)cc1 [Example 951, 4-(cyclohex-1-en-1-yl)-N-(4-(methylsulfonyl)phenyl)-1,7-naphthyridin-6-amine] |  |  | IC50 (CDK2/CCNE1; [6]): > 250 nM; IC50 (CDK1/CCNB1; [7]): > 250 nM
CS(=O)(=O)c1ccc(Nc2ncc3cccc(C4=CCCCC4)c3n2)cc1 [Example 952, 8-(cyclohex-1-en-1-yl)-N-(4-(methylsulfonyl)phenyl)quinazolin-2-amine] |  |  | IC50 (CDK2/CCNE1; [8]): 25 to 250 nM; IC50 (CDK1/CCNB1; [7]): > 250 nM
CS(=O)(=O)c1ccc(Nc2cc3c(N4CCC(C#N)CC4)ccnc3cn2)cc1 [Example 959, 1-(6-((4-(methylsulfonyl)phenyl)amino)-1,7-naphthyridin-4-yl)piperidine-4-carbonitrile] |  |  | IC50 (CDK2/CCNE1; [6]): > 250 nM; IC50 (CDK1/CCNB1; [7]): > 250 nM
CS(=O)(=O)c1ccc(Nc2cc3c(N4CCC(C#N)CC4)ncnc3cn2)cc1 [Example 960, 1-(6-((4-(methylsulfonyl)phenyl)amino)pyrido [3,4-d]pyrimidin-4-yl)piperidine-4-carbonitrile] |  |  | IC50 (CDK2/CCNE1; [6]): > 250 nM; IC50 (CDK1/CCNB1; [7]): > 250 nM
CS(=O)(=O)c1ccc(Nc2ncc3cccc(N4CCC(C#N)CC4)c3n2)cc1 [Example 961, 1-(2-((4-(methylsulfonyl)phenyl)amino)quinazolin-8-yl) piperidine-4-carbonitrile] |  |  | IC50 (CDK2/CCNE1; [8]): 25 to 250 nM; IC50 (CDK1/CCNB1; [7]): > 250 nM

The next lines start with results.

IC50 (CDK2/CCNE1; [1]) [nM] | IC50 (CDK1/CCNB1; [2]) [nM] | Structure (SMILES) | other results
25 to 250 | > 250 | Cc1c(-c2nccc3cnc(Nc4ccc(S(C)(=O)=O)cc4)cc23)ccc2nn(CCC3CNC3)cc12 [Ex 208, 5-(2-(2-(azetidin-3-yl)ethyl)-4-methyl-2H-indazol-5-yl)-N-(4-(methylsulfonyl)phenyl)-2,6-naphthyridin-3-amine] | 
25 to 250 |  | N#CC1CCN(c2nccc3cnc(Nc4ccc(O)c(CO)c4)cc23)CC1 [Ex 210, 1-(7-((4-hydroxy-3-(hydroxymethyl)phenyl)amino)-2,6-naphthyridin-1-yl)piperidine-4-carbonitrile] | IC50 (CDK1/CCNB1; [3]): 25 to 250 nM
25 to 250 | > 250 | CS(=O)(=O)c1ccc(Nc2cc3c(N4CCC(C#N)CC4)nccc3cn2)cc1 [Ex 259, 1-(7-((4-(methylsulfonyl)phenyl)amino)-2,6-naphthyridin-1-yl)piperidine-4-carbonitrile] | 
25 to 250 | > 250 | CS(=O)(=O)N1CCC(Nc2cc3c(-c4ccccn4)nccc3cn2)CC1 [Example 8, N-(1-(methylsulfonyl)piperidin-4-yl)-5-(pyridin-2-yl)-2,6-naphthyridin-3-amine] | 
 | > 250 | N#CC1CCN(c2nccc3cnc(Nc4ccc(C(=O)NC5CCSC5=O)cc4)cc23)CC1 (stereo not drawn) [Example 16, 4-((5-(4-cyanopiperidin-1-yl)-2,6-naphthyridin-3-yl)amino)-N-(2-oxotetrahydrothiophen-3-yl)benzamide] | IC50 (CDK2/CCNE1; [5]): > 250 nM
